Read-outs that look alike come from different tables or passages of the source.
Legend:
[1] = tested on: Influenza strain A549_A/WSN/33 (H1N1); assay: Influenza antiviral assay (neuraminidase fluorescence readout); assay type: cell-based, Influenza virus; conditions: read-out: % Inhibition (EC50 class, Table 2)
[2] = molecular target: Full length EN PA (influenza PA endonuclease) (Influenza A virus, UniProt P15659); assay: EN PA FRET inhibition assay; assay type: biochemical; conditions: FRET probe, mean of a minimum of two independent experiments, read-out: Potency (IC50 class, Table 3)

Row | Structure (SMILES) | EC50 ([1]; Influenza A virus) [µM] | IC50 [2] [µM] | EC50 [1] [µM]
1 | CN1CC(C2c3ccc(F)cc3CCc3cc(F)ccc32)n2ncc(=O)c(O)c2C1=O (centres unmarked) [Compound 89] | < 20 | < 0.25 | –
2 | COCC(C)(C)N1CC(C(c2ccccc2)c2ccccc2)n2ncc(=O)c(O)c2C1=O (centres unmarked) [Compound 90] | < 20 | < 0.25 | –
3 | CCN1C[C@H](C(c2cccc(F)c2)c2cccc(F)c2)n2ncc(=O)c(OCOC(=O)NCCN3CCOCC3)c2C1=O [Compound 91-A] | 20 to 100 | ≥ 1 | –
4 | O=C1c2c(O)c(=O)cnn2[C@@H](C(c2cccc(F)c2)c2cccc(F)c2)CN1CCO [Compound 92-A] | < 20 | < 0.25 | –
5 | O=C1c2c(O)c(=O)cnn2[C@@H](C(c2cccc(F)c2)c2cccc(F)c2)CN1CC1CC1 [Compound 93-A] | < 20 | < 0.25 | –
6 | CCN1C[C@H](C(c2cccc(F)c2)c2cccc(F)c2)n2ncc(=O)c(OCOC(=O)NC)c2C1=O [Compound 94-A] | 20 to 100 | ≥ 1 | –
7 | CCN1C[C@H](C(c2cccc(F)c2)c2cccc(F)c2)n2ncc(=O)c(OCOC(=O)[C@@H](N)C(C)C)c2C1=O [Compound 95-A] | < 20 | < 0.25 | –
8 | CC(C)[C@H](N)C(=O)OCOc1c2n(ncc1=O)[C@@H](C(c1ccccc1)c1ccccc1)CN(C(C)C)C2=O [Compound 96-A] | < 20 | < 0.25 | –
9 | O=C1c2c(O)c(=O)cnn2[C@@H](C(c2ccccc2)c2ccccc2)CN1CC1CC1 [Compound 97-A] | < 20 | < 0.25 | –
10 | CC(C)CN1C[C@H](C(c2ccccc2)c2ccccc2)n2ncc(=O)c(O)c2C1=O [Compound 98-A] | < 20 | < 0.25 | –
11 | CN1CC(C(c2ccccc2)c2cccc(CC#N)c2)n2ncc(=O)c(O)c2C1=O (centres unmarked) [Compound 99] | 20 to 100 | < 0.25 | –
12 | CN1CC(C(c2ccccc2)c2cccc(C#N)c2)n2ncc(=O)c(O)c2C1=O (centres unmarked) [Compound 100] | < 20 | < 0.25 | –
13 | CN1CC(C(c2ccccc2)c2cccc(CC(N)=O)c2)n2ncc(=O)c(O)c2C1=O (centres unmarked) [Compound 101] | 20 to 100 | < 0.25 | –
14 | CN1CC(C(c2cccc(C#N)c2)c2cccc(C#N)c2)n2ncc(=O)c(O)c2C1=O (centres unmarked) [Compound 102] | 20 to 100 | < 0.25 | –
15 | CN1CC(C(Cc2ccccc2)c2ccccc2)n2ncc(=O)c(O)c2C1=O (centres unmarked) [Compound 103] | 20 to 100 | < 0.25 | –
16 | CN1CC(C(c2ccccc2)c2cccc(Cc3cnn(C)c3)c2)n2ncc(=O)c(O)c2C1=O (centres unmarked) [Compound 104] | < 20 | < 0.25 | –
17 | CN1C[C@H]([C@@H](c2ccccc2)c2cccc(OC3CC3)c2)n2ncc(=O)c(O)c2C1=O [Compound 105-A] | < 20 | < 0.25 | –
18 | CN1C[C@H]([C@H](c2ccccc2)c2cccc(OC3CC3)c2)n2ncc(=O)c(O)c2C1=O [Compound 105-B] | < 20 | < 0.25 | –
19 | CN1C[C@@H]([C@H](c2ccccc2)c2cccc(OC3CC3)c2)n2ncc(=O)c(O)c2C1=O [Compound 105-C] | < 20 | 0.25 to 1 | –
20 | CN1C[C@@H]([C@@H](c2ccccc2)c2cccc(OC3CC3)c2)n2ncc(=O)c(O)c2C1=O [Compound 105-D] | 20 to 100 | ≥ 1 | –
21 | CN1CC(C(c2ccccc2)c2cccc(OC3CC3)c2)n2ncc(=O)c(O)c2C1=O (centres unmarked) [Compound 105] | 20 to 100 | < 0.25 | –

Row | Structure (SMILES) | EC50 ([1]; Influenza A virus) [µM] | IC50 [2] [µM] | EC50 [1] [µM]
22 | CC(N)C(=O)OCOc1c2n(ncc1=O)[C@@H](C(c1ccccc1)c1ccccc1)CN(C(C)C)C2=O (some centres unmarked) [Compound 106-A] | < 20 | < 0.25 | –
23 | CN1C[C@H]([C@@H](c2ccccc2)n2cnc(I)c2)n2ncc(=O)c(O)c2C1=O [Compound 107-A] | 20 to 100 | < 0.25 | –
24 | CN1C[C@H]([C@H](c2ccccc2)n2cnc(I)c2)n2ncc(=O)c(O)c2C1=O [Compound 107-B] | 20 to 100 | < 0.25 | –
25 | CN1C[C@H]([C@@H](c2ccccc2)n2ccnc2)n2ncc(=O)c(O)c2C1=O [Compound 108-A] | 20 to 100 | < 0.25 | –
26 | CN1C[C@H]([C@H](c2ccccc2)n2ccnc2)n2ncc(=O)c(O)c2C1=O [Compound 108-B] | 20 to 100 | < 0.25 | –
27 | C#Cc1ccn([C@H](c2ccccc2)[C@@H]2CN(C)C(=O)c3c(O)c(=O)cnn32)n1 [Compound 109-A] | < 20 | < 0.25 | –
28 | C#Cc1ccn([C@@H](c2ccccc2)[C@H]2CN(C)C(=O)c3c(O)c(=O)cnn32)n1 [Compound 109-B] | < 20 | < 0.25 | –
29 | C#Cc1ccn([C@H](c2ccccc2)[C@H]2CN(C)C(=O)c3c(O)c(=O)cnn32)n1 [Compound 109-C] | < 20 | < 0.25 | –
30 | C#Cc1ccn([C@@H](c2ccccc2)[C@@H]2CN(C)C(=O)c3c(O)c(=O)cnn32)n1 [Compound 109-D] | < 20 | 0.25 to 1 | –
31 | C#Cc1ccn(C(c2ccccc2)C2CN(C)C(=O)c3c(O)c(=O)cnn32)n1 (centres unmarked) [Compound 109] | < 20 | < 0.25 | –
32 | C[C@@H](N1C[C@H](C(c2ccccc2)c2ccccc2)n2ncc(=O)c(O)c2C1=O)C(F)(F)F [Compound 110-A] | < 20 | < 0.25 | –
33 | CC#Cc1cn(C(c2ccccc2)C2CN(C)C(=O)c3c(O)c(=O)cnn32)cn1 (centres unmarked) [Compound 111] | ≥ 100 | 0.25 to 1 | –
34 | CC(C)N1C[C@H](C(c2ccccc2)c2ccccc2)n2ncc(=O)c(OC(=O)C3CCCCC3)c2C1=O [Compound 112] | < 20 | 0.25 to 1 | –
35 | CC(C)N1C[C@H](C(c2ccccc2)c2ccccc2)n2ncc(=O)c(OCOC(=O)C(C)(C)N)c2C1=O [Compound 113-A] | < 20 | < 0.25 | –
36 | CC(C)N1C[C@@H](C(c2ccccc2)c2ccccc2)n2ncc(=O)c(OCOC(=O)C(C)(C)N)c2C1=O [Compound 113-B] | 20 to 100 | 0.25 to 1 | –
37 | CC(C)C(=O)Oc1c2n(ncc1=O)[C@H](C1c3cccc(F)c3CCc3c(F)cccc31)CN(C(C)C)C2=O [Compound 114-B] | < 20 | ≥ 1 | –
38 | CC(C)C(=O)Oc1c2n(ncc1=O)C(C1c3cccc(F)c3CCc3c(F)cccc31)CN(C(C)C)C2=O (centres unmarked) [Compound 114] | < 20 | < 0.25 | –
39 | CC#Cc1ccn([C@H](c2ccccc2)[C@@H]2CN(C)C(=O)c3c(O)c(=O)cnn32)n1 [Compound 115-A] | < 20 | ≥ 1 | –
40 | CC#Cc1ccn([C@@H](c2ccccc2)[C@H]2CN(C)C(=O)c3c(O)c(=O)cnn32)n1 [Compound 115-B] | < 20 | < 0.25 | –
41 | CC#Cc1ccn([C@H](c2ccccc2)[C@H]2CN(C)C(=O)c3c(O)c(=O)cnn32)n1 [Compound 115-C] | < 20 | < 0.25 | –
42 | CC#Cc1ccn([C@@H](c2ccccc2)[C@@H]2CN(C)C(=O)c3c(O)c(=O)cnn32)n1 [Compound 115-D] | < 20 | ≥ 1 | –

Row | Structure (SMILES) | EC50 ([1]; Influenza A virus) [µM] | IC50 [2] [µM] | EC50 [1] [µM]
43 | CC#Cc1ccn(C(c2ccccc2)C2CN(C)C(=O)c3c(O)c(=O)cnn32)n1 (centres unmarked) [Compound 115] | < 20 | < 0.25 | –
44 | C#Cc1cn(C(c2ccccc2)C2CN(C)C(=O)c3c(O)c(=O)cnn32)cn1 (centres unmarked) [Compound 116] | < 20 | < 0.25 | –
45 | CCC#Cc1ccn(C(c2ccccc2)C2CN(C)C(=O)c3c(O)c(=O)cnn32)n1 (centres unmarked) [Compound 117] | < 20 | < 0.25 | –
46 | CC(C)CC(=O)Oc1c2n(ncc1=O)[C@@H](C(c1ccccc1)c1ccccc1)CN(C(C)C)C2=O [Compound 118] | < 20 | 0.25 to 1 | –
47 | CC(C)N1C[C@H](C(c2ccccc2)c2ccccc2)n2ncc(=O)c(OC(=O)C3CCCC3)c2C1=O [Compound 119] | < 20 | < 0.25 | –
48 | CC(C)N1C[C@H](C(c2ccccc2)c2ccccc2)n2ncc(=O)c(OC(=O)C3CCOCC3)c2C1=O [Compound 120] | < 20 | < 0.25 | –
49 | CC(C)N1CC(C2c3ccccc3CSc3ccccc32)n2ncc(=O)c(O)c2C1=O (centres unmarked) [Compound 121] | < 20 | < 0.25 | –
50 | CCC#Cc1ccn([C@H](c2ccccc2)[C@H]2CN(C)C(=O)c3c(O)c(=O)cnn32)n1 [Compound 122] | < 20 | < 0.25 | –
51 | CCC#Cc1ccn([C@@H](c2ccccc2)[C@H]2CN(C)C(=O)c3c(O)c(=O)cnn32)n1 [Compound 123] | < 20 | < 0.25 | –
52 | CCC#Cc1ccn([C@H](c2ccccc2)[C@@H]2CN(C)C(=O)c3c(O)c(=O)cnn32)n1 [Compound 124] | < 20 | 0.25 to 1 | –
53 | CCC#Cc1ccn([C@@H](c2ccccc2)[C@@H]2CN(C)C(=O)c3c(O)c(=O)cnn32)n1 [Compound 125] | < 20 | < 0.25 | –
54 | CCC#Cc1ccn(C(c2ccccc2)C2CN(C(C)C)C(=O)c3c(O)c(=O)cnn32)n1 (centres unmarked) [Compound 126] | < 20 | < 0.25 | –
55 | CC(C)N1C[C@H]([C@H](c2ccccc2)n2ccc(C#N)n2)n2ncc(=O)c(O)c2C1=O [Compound 127-A] | < 20 | < 0.25 | –
56 | CC(C)N1C[C@H]([C@@H](c2ccccc2)n2ccc(C#N)n2)n2ncc(=O)c(O)c2C1=O [Compound 127-B] | < 20 | < 0.25 | –
57 | CC(C)N1C[C@H]([C@@H](c2ccccc2)n2ccc(C#N)n2)n2ncc(=O)c(O)c2C1=O [Compound 127-C] | – | 0.25 to 1 | < 20
58 | CC(C)N1C[C@@H]([C@@H](c2ccccc2)n2ccc(C#N)n2)n2ncc(=O)c(O)c2C1=O [Compound 127-D] | < 20 | 0.25 to 1 | –
59 | CC(C)N1CC(C(c2ccccc2)n2ccc(C#N)n2)n2ncc(=O)c(O)c2C1=O (centres unmarked) [Compound 127] | < 20 | < 0.25 | –
60 | CN1C[C@H]([C@@H](c2ccccc2)c2ccccn2)n2ncc(=O)c(O)c2C1=O [Compound 128] | < 20 | < 0.25 | –
61 | [2H]c1c([2H])c([2H])c(C(c2c([2H])c([2H])c([2H])c([2H])c2[2H])[C@H]2CN(C(C)C)C(=O)c3c(O)c(=O)cnn32)c([2H])c1[2H] [Compound 129] | < 20 | < 0.25 | –
